Values quoted from earlier work as cited in patent US20090318293A1, “AGRICULTURAL COMPOSITION” (PLANT IMPACT PLC, priority 2005, published 2009).

Test system: cotyledon growth, chlorophyll biosynthesis and cell elongation
Details: on cotyledon growth, chlorophyll biosynthesis and cell elongation in the systems studied

Cn1c(=O)c2c(ncn2C)n(C)c1=O [caffeine, 3,7-Dihydro-1,3,7-trimethyl-1H-purine-2,6-dione]
cytokinin-like effect: weak cytokinin-like effect
